Results from US20260176270A1 (Exelixis, Inc., priority 2022, published 2026).
pIC50: −log10 of the molar value. Like-named read-outs stand apart in the source and are kept apart here.

Assays:
[1] = system: phosphorylation of CDK1 at Thr14 in HCC1806 cells; test: Cell lysate AlphaLISA assay measuring inhibition of phosphorylation of CDK1 Thr14; format: cell-based; conditions: read-out: Cellular IC50
Protocol: (§1) Biochemical IC50 values were determined via ADP-Glo™ assay. Cellular IC50 values were determined via AlphaLISA assay.
Cell lysate AlphaLISA® assay measuring inhibition of phosphorylation of CDK1 Thr14. Inhibition of phosphorylation of CDK1 at Thr14 was determined using AlphaLISA® SureFire® Ultra™ Kit from Perkin Elmer (ALSU-PCDK1-A10K). HCC1806 cells were seeded at 2K cells per well (50 μl/well) in 384-well plates (Corning 3570) and stored overnight at 37° C. and 5% CO2. The following day, the compounds dissolved in DMSO were introduced to the cells and incubated for 4 hours at 37° C. and 5% CO2. The cells were then washed with PBS using Blue®Washer and 10 μl of lysis buffer containing protease inhibitor was added. The plate was placed on an orbital shaker (at 4° C.) for 30 minutes and stored overnight at −80° C. for complete lysing. The next day, the plates were thawed at room temperature for at least 30 min. Reagents were prepared in a dimmed light setting (<100 lumens). The assay was run by first adding 5 μl of the acceptor mix (reaction buffer 1: reaction buffer 2: activation buffer: acceptor beads 47:47:4:2), covering the plate with foil, shaking for 2 minutes and incubating at RT for 60 minutes. The donor mix (dilution buffer: donor beads 47:3) was then added at 5 μl per well, placed on the shaker for 2 minutes and incubated at RT for 60 minutes before reading the plates on a PHERAstar® plate reader. The results were normalized to DMSO (0% Inhibition) and 3 μM of reference compound.

PKMYT1 = target: T1, PKMYT1 (Homo sapiens, UniProt Q99640); test: ADP-Glo PKMYT1 ATP-depletion assay; conditions: 50 nM PKMYT1, 13.3 nM CDK1, read-out: Biochemical IC50
T1 construct: PKMYT1 (93 kD, full length, N-terminal GST tag from Signal Chem); GST (N); purchased Signal Chem
T1 sequence (Q99640 1-499): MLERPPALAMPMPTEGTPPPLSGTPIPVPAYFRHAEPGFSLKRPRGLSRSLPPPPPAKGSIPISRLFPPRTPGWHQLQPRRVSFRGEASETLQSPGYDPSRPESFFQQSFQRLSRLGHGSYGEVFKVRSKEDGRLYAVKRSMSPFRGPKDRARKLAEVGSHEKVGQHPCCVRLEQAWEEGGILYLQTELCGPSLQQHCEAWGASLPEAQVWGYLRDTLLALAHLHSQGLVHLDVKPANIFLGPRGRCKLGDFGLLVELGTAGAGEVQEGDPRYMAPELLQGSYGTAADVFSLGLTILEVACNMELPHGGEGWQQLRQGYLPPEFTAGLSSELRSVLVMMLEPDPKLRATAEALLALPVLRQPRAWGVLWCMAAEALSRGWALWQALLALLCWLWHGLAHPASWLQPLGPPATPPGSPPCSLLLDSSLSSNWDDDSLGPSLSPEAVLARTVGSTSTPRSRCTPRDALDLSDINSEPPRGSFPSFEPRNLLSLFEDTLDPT
Protocol: as §1
ADP-Glo™ PKMYT1 ATP-depletion assay. The activity of PKMYT1 is measured using a luciferase-luciferin based ATP detection reaction to quantify ATP depletion resulting from kinase-catalyzed phosphoryl transfer to CDK1 or autophosphorylation of PKMYT1. The ADP generated as a byproduct of the reaction is converted to ATP and used to drive a luciferase reaction. Test compounds were dissolved in DMSO and dispensed into Corning 3824 384-well plates prior to the experiment such that the final DMSO concentration was <1%. To the compounds was added 3 μL of PKMYT1 (93 kD, full length, N-terminal GST tag from Signal Chem). The reaction was started by the addition of 2 μL of CDK1 (58 kDa, full length, N-terminal GST tag from Signal Chem) and ATP in assay buffer (50 mM Hepes, 40 mM NaCl, 10 mM MgCl2, 1 mM DTT, 0.1 mg/mL BSA, 2.5 mM MnCl2). Final assay concentrations were 50 nM PKMYT1, 13.3 nM CDK1, and 88 µM ATP. Plates were centrifuged for 1 minute at 1000 RPM and incubated at RT for 120 minutes. After the incubation period, ADP-Glo™ reagent was added and the plates were incubated for another 40 minutes before finally adding the kinase detection reagent. 30 minutes after the addition, plates were placed on a PHERAstar® plate reader and read using the Luminescence Protocol, integration time at 0.5 seconds.

Row | SMILES | pIC50 ([1]; 4 hours) | pIC50 (PKMYT1) | pIC50 ([1]; Homo sapiens, HCC1806, 4 h)
1 | Cc1ccc(O)c(C)c1-c1c(N)c(C(N)=O)nc2ccccc12 (atropisomer, axis not shown; (P)) [Compound 45, (P)-3-amino-4-(3-hydroxy-2,6-dimethylphenyl)quinoline-2-carboxamide] | ≤ 5.30 | 5.30 to 6.00 | –
2 | Cc1c(O)cccc1-c1c(N)c(C(N)=O)cc2ncccc12 (atropisomer, axis not shown; (P)) [Compound 69, (P)-6-amino-5-(3-hydroxy-2-methylphenyl)quinoline-7-carboxamide] | ≤ 5.30 | 5.30 to 6.00 | –
3 | Cc1c(O)cccc1-c1c(N)c(C(N)=O)cc2nc(C(F)(F)F)cnc12 (atropisomer, axis not shown; (P)) [Compound 100, (P)-7-Amino-8-(3-hydroxy-2-methylphenyl)-3-(trifluoromethyl)quinoxaline-6-carboxamide] | 6.30 to 7.30 | 6.30 to 7.30 | –
4 | Cc1ccc(O)cc1-c1c(N)c(C(N)=O)cc2nccnc12 (atropisomer, axis not shown; (P)) [Compound 117, (P)-7-amino-8-(5-hydroxy-2-methylphenyl)quinoxaline-6-carboxamide] | ≤ 5.30 | 5.30 to 6.00 | –
5 | Cc1c(O)cccc1-c1c(N)c(C(N)=O)nc2cccnc12 (single isomer, unassigned) [Compound 4, (P)-3-Amino-4-(3-hydroxy-2-methylphenyl)-1,5-naphthyridine-2-carboxamide] | > 7.30 | > 7.30 | –
6 | Cc1c(O)cccc1-c1c(N)c(C(N)=O)nc2cccnc12 (single isomer, unassigned) [Compound 5, (M)-3-amino-4-(3-hydroxy-2-methylphenyl)-1,5-naphthyridine-2-carboxamide] | 5.30 to 6.00 | 6.00 to 6.30 | –
7 | Cc1ccc2[nH]ncc2c1-c1c(N)c(C(N)=O)nc2cccnc12 (single isomer, unassigned) [Compound 7, (P)-3-amino-4-(5-methyl-1H-indazol-4-yl)-1,5-naphthyridine-2-carboxamide] | 5.30 to 6.00 | 6.30 to 7.30 | –
8 | Cc1ccc2[nH]ncc2c1-c1c(N)c(C(N)=O)nc2cccnc12 (single isomer, unassigned) [Compound 8, (M)-3-amino-4-(5-methyl-1H-indazol-4-yl)-1,5-naphthyridine-2-carboxamide] | ≤ 5.30 | ≤ 5.30 | –
9 | Cc1ccc(O)c(C)c1-c1c(N)c(C(N)=O)nc2cccnc12 (single isomer, unassigned) [Compound 9, (P)-3-Amino-4-(3-hydroxy-2,6-dimethylphenyl)-1,5-naphthyridine-2-carboxamide] | > 7.30 | > 7.30 | –
10 | Cc1ccc(O)c(C)c1-c1c(N)c(C(N)=O)nc2cccnc12 (single isomer, unassigned) [Compound 10, (M)-3-amino-4-(3-hydroxy-2,6-dimethylphenyl)-1,5-naphthyridine-2-carboxamide] | 5.30 to 6.00 | 6.00 to 6.30 | –
11 | Cc1ccc(O)c(C)c1-c1c(N)c(C(N)=O)nc2c(C(F)(F)F)cccc12 (single isomer, unassigned) [Compound 30, (M)-3-Amino-4-(3-hydroxy-2,6-dimethylphenyl)-8-(trifluoromethyl) quinoline-2-carboxamide] | > 7.30 | 6.30 to 7.30 | –
12 | Cc1ccc(O)c(C)c1-c1c(N)c(C(N)=O)nc2c(C(F)(F)F)cccc12 (single isomer, unassigned) [Compound 31, (P)-3-amino-4-(3-hydroxy-2,6-dimethylphenyl)-8-(trifluoromethyl) quinoline-2-carboxamide] | ≤ 5.30 | ≤ 5.30 | –
13 | Cc1ccc(O)c(C)c1-c1c(N)c(C(N)=O)nc2c(C)cccc12 (single isomer, unassigned) [Compound 32] | – | ≤ 5.30 | ≤ 5.30
14 | Cc1ccc(O)c(C)c1-c1c(N)c(C(N)=O)nc2c(C)cccc12 (single isomer, unassigned) [Compound 33] | ≤ 5.30 | 5.30 to 6.00 | –
15 | Cc1ccc(O)c(C)c1-c1c(N)c(C(N)=O)nc2c(F)cccc12 (single isomer, unassigned) [Compound 38, (M)-3-Amino-8-fluoro-4-(3-hydroxy-2,6-dimethylphenyl) quinoline-2-carboxamide] | 6.30 to 7.30 | 6.30 to 7.30 | –
16 | Cc1ccc(O)c(C)c1-c1c(N)c(C(N)=O)nc2c(F)cccc12 (single isomer, unassigned) [Compound 39, (P)-3-amino-8-fluoro-4-(3-hydroxy-2,6-dimethylphenyl)quinoline-2-carboxamide] | ≤ 5.30 | ≤ 5.30 | –
17 | Cc1ccc(O)c(C)c1-c1c(N)c(C(N)=O)nc2ccc(C(F)(F)F)cc12 (single isomer, unassigned) [Compound 40, (M)-3-Amino-4-(3-hydroxy-2,6-dimethylphenyl)-6-(trifluoromethyl)quinoline-2-carboxamide] | 5.30 to 6.00 | 6.00 to 6.30 | –
18 | Cc1ccc(O)c(C)c1-c1c(N)c(C(N)=O)nc2ccc(C(F)(F)F)cc12 (single isomer, unassigned) [Compound 41, (P)-3-amino-4-(3-hydroxy-2,6-dimethylphenyl)-6-(trifluoromethyl)quinoline-2-carboxamide] | ≤ 5.30 | ≤ 5.30 | –
19 | Cc1ccc2c(-c3cccc(O)c3C)c(N)c(C(N)=O)nc2c1 (single isomer, unassigned) [Compound 49, (M)-3-Amino-4-(3-hydroxy-2-methylphenyl)-7-methylquinoline-2-carboxamide] | 5.30 to 6.00 | 6.00 to 6.30 | –
20 | Cc1ccc2c(-c3cccc(O)c3C)c(N)c(C(N)=O)nc2c1 (single isomer, unassigned) [Compound 50, (P)-3-amino-4-(3-hydroxy-2-methylphenyl)-7-methylquinoline-2-carboxamide] | ≤ 5.30 | ≤ 5.30 | –
21 | Cc1ccc(O)c(C)c1-c1c(N)c(C(N)=O)nc2ccc(Cl)cc12 (single isomer, unassigned) [Compound 53, (M)-3-Amino-6-chloro-4-(3-hydroxy-2,6-dimethylphenyl)quinoline-2-carboxamide] | 5.30 to 6.00 | 6.30 to 7.30 | –
22 | Cc1ccc(O)c(C)c1-c1c(N)c(C(N)=O)nc2ccc(Cl)cc12 (single isomer, unassigned) [Compound 54, (P)-3-amino-6-chloro-4-(3-hydroxy-2,6-dimethylphenyl)quinoline-2-carboxamide] | ≤ 5.30 | ≤ 5.30 | –
23 | Cc1c(O)cccc1-c1c(N)c(C(N)=O)nc2cccc(F)c12 (single isomer, unassigned) [Compound 57, (P)-3-Amino-5-fluoro-4-(3-hydroxy-2-methylphenyl)quinoline-2-carboxamide] | 6.30 to 7.30 | > 7.30 | –
24 | Cc1c(O)cccc1-c1c(N)c(C(N)=O)nc2cccc(F)c12 (single isomer, unassigned) [Compound 58, (M)-3-amino-5-fluoro-4-(3-hydroxy-2-methylphenyl)quinoline-2-carboxamide] | ≤ 5.30 | 5.30 to 6.00 | –
25 | Cc1c(O)cccc1-c1c(N)c(C(N)=O)cc2cccnc12 (single isomer, unassigned) [Compound 62] | 6.30 to 7.30 | > 7.30 | –
26 | Cc1c(O)cccc1-c1c(N)c(C(N)=O)cc2cccnc12 (single isomer, unassigned) [Compound 63] | ≤ 5.30 | 5.30 to 6.00 | –
